Key:
[1] = system: barnyardgrass (Echinochloa crus-galli); experiment: Test A postemergence, barnyardgrass; assay type: in vivo; conditions: Echinochloa crus-galli, post-emergence, 240 h; Postemergence, 1000 g ai/ha; visual injury, 0 to 100 scale (0 no effect, 100 complete control), approx. 10 days; read-out: Plant response rating, Barnyardgrass
Procedure, shortened: (§1)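 Greenhouse pot test in a loam–sand blend; compounds delivered in a non-phytotoxic solvent carrying a surfactant, applied either as a directed spray to soil at seeding or over seedlings 2 to 10 cm high with one to two leaves.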

rice (Oryza sativa) = experiment: Test B flooded paddy test, rice; conditions: 336 h, read-out: Plant response rating, Rice
[2] = system: ducksalad (Heteranthera limosa); experiment: Test B flooded paddy test, ducksalad; conditions: 336 h, read-out: Plant response rating, Ducksalad
[3] = system: Foxtail, Giant (giant foxtail, Setaria faberi); experiment: Test A postemergence, Foxtail, Giant; assay type: in vivo; conditions: Setaria faberi, post-emergence, 240 h; Postemergence, 1000 g ai/ha; visual injury, 0 to 100 scale (0 no effect, 100 complete control), approx. 10 days; read-out: Plant response rating, Foxtail, Giant
Procedure, shortened: (§2)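 Seeds are sown in loam mixed with sand and sprayed on the soil surface right after planting for the preemergence test. Postemergence pots are sprayed once seedlings reach 2 to 10 cm at the one- to two-leaf stage. The same surfactant-containing, non-phytotoxic solvent formulation serves both.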

kochia (Bassia scoparia) [4] = experiment: Test A postemergence, kochia; assay type: in vivo; conditions: Bassia scoparia, post-emergence, 240 h; Postemergence, 1000 g ai/ha; visual injury, 0 to 100 scale (0 no effect, 100 complete control), approx. 10 days; read-out: Plant response rating, Kochia
Procedure, shortened: as §2

[5] = system: Ryegrass, Italian (Italian ryegrass, Lolium multiflorum); experiment: Test A postemergence, Ryegrass, Italian; assay type: in vivo; conditions: Lolium multiflorum, post-emergence, 240 h; Postemergence, 1000 g ai/ha; visual injury, 0 to 100 scale (0 no effect, 100 complete control), approx. 10 days; read-out: Plant response rating, Ryegrass, Italian
Procedure, shortened: as §2

[6] = system: galium (catchweed bedstraw, Galium aparine); experiment: Test A postemergence, galium; assay type: in vivo; conditions: Galium, post-emergence, 240 h; Postemergence, 1000 g ai/ha; visual injury, 0 to 100 scale (0 no effect, 100 complete control), approx. 10 days; read-out: Plant response rating, Galium
Procedure, shortened: as §1

corn (Zea mays) = experiment: Test A postemergence, corn; assay type: in vivo; conditions: Zea mays, post-emergence, 240 h; Postemergence, 1000 g ai/ha; visual injury, 0 to 100 scale (0 no effect, 100 complete control), approx. 10 days
Procedure, shortened: as §2

[7] = system: ragweed (common ragweed, Ambrosia artemisiifolia); experiment: Test A postemergence, ragweed; assay type: in vivo; conditions: Ambrosia artemisiifolia, post-emergence, 240 h; Postemergence, 1000 g ai/ha; visual injury, 0 to 100 scale (0 no effect, 100 complete control), approx. 10 days; read-out: Plant response rating, Ragweed
Procedure, shortened: as §2

[8] = system: Foxtail, Giant (giant foxtail, Setaria faberi); experiment: Test A preemergence, Foxtail, Giant; assay type: in vivo; conditions: Setaria faberi, pre-emergence, 240 h; Preemergence, 1000 g ai/ha; 0 to 100 scale (0 no effect, 100 complete control); read-out: Plant response rating, Foxtail, Giant
Procedure, shortened: as §2

[9] = system: barnyardgrass (Echinochloa crus-galli); experiment: Test A preemergence, barnyardgrass; assay type: in vivo; conditions: Echinochloa crus-galli, pre-emergence, 240 h; Preemergence, 1000 g ai/ha; 0 to 100 scale (0 no effect, 100 complete control); read-out: Plant response rating, Barnyardgrass
Procedure, shortened: as §2

[10] = system: wheat (Triticum aestivum); experiment: Test A postemergence, wheat; assay type: in vivo; conditions: Triticum aestivum, post-emergence, 240 h; Postemergence, 1000 g ai/ha; visual injury, 0 to 100 scale (0 no effect, 100 complete control), approx. 10 days; read-out: Plant response rating, Wheat
Procedure, shortened: as §1

kochia (Bassia scoparia) [11] = experiment: Test A preemergence, kochia; assay type: in vivo; conditions: Bassia scoparia, pre-emergence, 240 h; Preemergence, 1000 g ai/ha; 0 to 100 scale (0 no effect, 100 complete control); read-out: Plant response rating, Kochia
Procedure, shortened: as §2

[12] = system: Ryegrass, Italian (Italian ryegrass, Lolium multiflorum); experiment: Test A preemergence, Ryegrass, Italian; assay type: in vivo; conditions: Lolium multiflorum, pre-emergence, 240 h; Preemergence, 1000 g ai/ha; 0 to 100 scale (0 no effect, 100 complete control); read-out: Plant response rating, Ryegrass, Italian
Procedure, shortened: as §2

[13] = system: barnyardgrass (Echinochloa crus-galli); experiment: Test B flooded paddy test, barnyardgrass; conditions: 336 h, read-out: Plant response rating, Barnyardgrass
[14] = system: blackgrass (Alopecurus myosuroides); experiment: Test A postemergence, blackgrass; assay type: in vivo; conditions: Alopecurus myosuroides, post-emergence, 240 h; Postemergence, 1000 g ai/ha; visual injury, 0 to 100 scale (0 no effect, 100 complete control), approx. 10 days; read-out: Plant response rating, Blackgrass
Procedure, shortened: as §2

[15] = system: pigweed (Amaranthus retroflexus); experiment: Test A postemergence, pigweed; assay type: in vivo; conditions: Amaranthus retroflexus, post-emergence, 240 h; Postemergence, 1000 g ai/ha; visual injury, 0 to 100 scale (0 no effect, 100 complete control), approx. 10 days; read-out: Plant response rating, Pigweed
Procedure, shortened: as §2

[16] = system: pigweed (Amaranthus retroflexus); experiment: Test A preemergence, pigweed; assay type: in vivo; conditions: Amaranthus retroflexus, pre-emergence, 240 h, 1000 g ai/ha, 0 to 100 scale (0 no effect, 100 complete control), read-out: Plant response rating, Pigweed
Procedure, shortened: as §1

[17] = system: ragweed (common ragweed, Ambrosia artemisiifolia); experiment: Test A preemergence, ragweed; assay type: in vivo; conditions: Ambrosia artemisiifolia, pre-emergence, 240 h; Preemergence, 1000 g ai/ha; 0 to 100 scale (0 no effect, 100 complete control); read-out: Plant response rating, Ragweed
Procedure, shortened: as §2

Cc1cc(C)c(C(=O)N2CCCCC2)cc1NS(=O)(=O)C(F)(F)F [Compound 260, N-[2,4-Dimethyl-5-(1-piperidinylcarbonyl)phenyl]-1,1,1-trifluoromethanesulfonamide]
pest or weed control at 1000 g/ha [1]: 90%
plant injury at 250 g/ha (rice (Oryza sativa)): 0%
pest or weed control at 250 g/ha [2]: 80%
pest or weed control at 1000 g/ha [3]: 50%
pest or weed control at 1000 g/ha (kochia (Bassia scoparia) [4]): 0%
pest or weed control at 1000 g/ha [5]: 60%
pest or weed control at 1000 g/ha [6]: 70%
Corn plant response rating (crop injury, 0 = no effect, 100 = complete kill) at 1000 g/ha (corn (Zea mays)): 10%
pest or weed control at 1000 g/ha [7]: 50%
melting point: 262 to 266 °C
pest or weed control at 1000 g/ha [8]: 100%
pest or weed control at 1000 g/ha [9]: 100%
plant injury at 1000 g/ha [10]: 60%
pest or weed control at 1000 g/ha (kochia (Bassia scoparia) [11]): 40%
pest or weed control at 1000 g/ha [12]: 100%
pest or weed control at 250 g/ha [13]: 0%
pest or weed control at 1000 g/ha [14]: 50%
pest or weed control at 1000 g/ha [15]: 80%
pest or weed control at 1000 g/ha [16]: 100%
pest or weed control at 1000 g/ha [17]: 90%

Reference: patent US20230278972A1, “SUBSTITUTED HALOALKYL SULFONANILIDE HERBICIDES” (FMC Corporation, priority 2020, published 2023)
